Results: the NIST ThermoML archive (doi:10.1016/j.jct.2007.11.009)
± gives the expanded uncertainty stated by the source.

Assay: xn = mol fraction of the nth substance listed
Conditions: Liquid, Vibrating tube method, x2 = 0

c1ccccc1 [benzene] + CCCCCCCC
mass density (298.15 K, 100 kPa): 873.5 ± 0.2 kg/m3
mass density (298.15 K, 2130 kPa): 875.1 ± 0.2 kg/m3
mass density (298.15 K, 4150 kPa): 876.7 ± 0.2 kg/m3
mass density (298.15 K, 6180 kPa): 878.4 ± 0.2 kg/m3
mass density (298.15 K, 8210 kPa): 879.9 ± 0.2 kg/m3
mass density (298.15 K, 10230 kPa): 881.5 ± 0.2 kg/m3
mass density (298.15 K, 11250 kPa): 882.3 ± 0.2 kg/m3
mass density (298.15 K, 12260 kPa): 883.1 ± 0.3 kg/m3
mass density (298.15 K, 14290 kPa): 884.6 ± 0.3 kg/m3
mass density (298.15 K, 16310 kPa): 886.1 ± 0.3 kg/m3
mass density (298.15 K, 18340 kPa): 887.6 ± 0.3 kg/m3
mass density (298.15 K, 20370 kPa): 889.1 ± 0.3 kg/m3
mass density (298.15 K, 22390 kPa): 890.5 ± 0.3 kg/m3
mass density (298.15 K, 24420 kPa): 892 ± 0.3 kg/m3
mass density (298.15 K, 26450 kPa): 893.4 ± 0.3 kg/m3
mass density (298.15 K, 28470 kPa): 894.7 ± 0.3 kg/m3
mass density (298.15 K, 29490 kPa): 895.4 ± 0.3 kg/m3
mass density (298.15 K, 30500 kPa): 896.1 ± 0.3 kg/m3
mass density (298.15 K, 32530 kPa): 897.5 ± 0.3 kg/m3
mass density (298.15 K, 34550 kPa): 898.8 ± 0.3 kg/m3
mass density (298.15 K, 36580 kPa): 900.1 ± 0.3 kg/m3
mass density (298.15 K, 38600 kPa): 901.4 ± 0.3 kg/m3
mass density (298.15 K, 39620 kPa): 902 ± 0.3 kg/m3
mass density (308.15 K, 100 kPa): 862.9 ± 0.2 kg/m3
mass density (308.15 K, 2130 kPa): 864.7 ± 0.2 kg/m3
mass density (308.15 K, 4150 kPa): 866.4 ± 0.2 kg/m3
mass density (308.15 K, 6180 kPa): 868.2 ± 0.2 kg/m3
mass density (308.15 K, 8210 kPa): 869.9 ± 0.2 kg/m3
mass density (308.15 K, 10230 kPa): 871.6 ± 0.3 kg/m3
mass density (308.15 K, 11250 kPa): 872.4 ± 0.3 kg/m3
mass density (308.15 K, 12260 kPa): 873.2 ± 0.3 kg/m3
mass density (308.15 K, 14290 kPa): 874.8 ± 0.3 kg/m3
mass density (308.15 K, 16310 kPa): 876.4 ± 0.3 kg/m3
mass density (308.15 K, 18340 kPa): 878 ± 0.3 kg/m3
mass density (308.15 K, 20370 kPa): 879.5 ± 0.3 kg/m3
mass density (308.15 K, 22390 kPa): 881.1 ± 0.3 kg/m3
mass density (308.15 K, 24420 kPa): 882.6 ± 0.3 kg/m3
mass density (308.15 K, 26450 kPa): 884 ± 0.3 kg/m3
mass density (308.15 K, 28470 kPa): 885.5 ± 0.3 kg/m3
mass density (308.15 K, 29490 kPa): 886.2 ± 0.3 kg/m3
mass density (308.15 K, 30500 kPa): 886.9 ± 0.3 kg/m3
mass density (308.15 K, 32530 kPa): 888.4 ± 0.3 kg/m3
mass density (308.15 K, 34550 kPa): 889.7 ± 0.3 kg/m3
mass density (308.15 K, 36580 kPa): 891.1 ± 0.3 kg/m3
mass density (308.15 K, 38600 kPa): 892.5 ± 0.3 kg/m3
mass density (308.15 K, 39620 kPa): 893.2 ± 0.3 kg/m3
mass density (318.15 K, 100 kPa): 852.3 ± 0.2 kg/m3
mass density (318.15 K, 2130 kPa): 854.2 ± 0.2 kg/m3
mass density (318.15 K, 4150 kPa): 856.1 ± 0.2 kg/m3
mass density (318.15 K, 6180 kPa): 857.9 ± 0.2 kg/m3
mass density (318.15 K, 8210 kPa): 859.7 ± 0.2 kg/m3
mass density (318.15 K, 10230 kPa): 861.5 ± 0.3 kg/m3
mass density (318.15 K, 11250 kPa): 862.4 ± 0.3 kg/m3
mass density (318.15 K, 12260 kPa): 863.2 ± 0.3 kg/m3
mass density (318.15 K, 14290 kPa): 865 ± 0.3 kg/m3
mass density (318.15 K, 16310 kPa): 866.6 ± 0.3 kg/m3
mass density (318.15 K, 18340 kPa): 868.3 ± 0.3 kg/m3
mass density (318.15 K, 20370 kPa): 869.9 ± 0.3 kg/m3
mass density (318.15 K, 22390 kPa): 871.6 ± 0.3 kg/m3
mass density (318.15 K, 24420 kPa): 873.2 ± 0.3 kg/m3
mass density (318.15 K, 26450 kPa): 874.7 ± 0.3 kg/m3
mass density (318.15 K, 28470 kPa): 876.2 ± 0.3 kg/m3
mass density (318.15 K, 29490 kPa): 877 ± 0.3 kg/m3
mass density (318.15 K, 30500 kPa): 877.8 ± 0.3 kg/m3
mass density (318.15 K, 32530 kPa): 879.2 ± 0.3 kg/m3
mass density (318.15 K, 34550 kPa): 880.7 ± 0.3 kg/m3
mass density (318.15 K, 36580 kPa): 882.1 ± 0.3 kg/m3
mass density (318.15 K, 38600 kPa): 883.6 ± 0.3 kg/m3
mass density (318.15 K, 39620 kPa): 884.3 ± 0.3 kg/m3
mass density (328.15 K, 100 kPa): 841.5 ± 0.2 kg/m3
mass density (328.15 K, 2130 kPa): 843.6 ± 0.2 kg/m3
mass density (328.15 K, 4150 kPa): 845.6 ± 0.2 kg/m3
mass density (328.15 K, 6180 kPa): 847.5 ± 0.2 kg/m3
mass density (328.15 K, 8210 kPa): 849.5 ± 0.3 kg/m3
mass density (328.15 K, 10230 kPa): 851.3 ± 0.3 kg/m3
mass density (328.15 K, 11250 kPa): 852.3 ± 0.3 kg/m3
mass density (328.15 K, 12260 kPa): 853.2 ± 0.3 kg/m3
mass density (328.15 K, 14290 kPa): 855 ± 0.3 kg/m3
mass density (328.15 K, 16310 kPa): 856.8 ± 0.3 kg/m3
mass density (328.15 K, 18340 kPa): 858.6 ± 0.3 kg/m3
mass density (328.15 K, 20370 kPa): 860.3 ± 0.3 kg/m3
mass density (328.15 K, 22390 kPa): 862 ± 0.3 kg/m3
mass density (328.15 K, 24420 kPa): 863.7 ± 0.3 kg/m3
mass density (328.15 K, 26450 kPa): 865.3 ± 0.3 kg/m3
mass density (328.15 K, 28470 kPa): 866.9 ± 0.3 kg/m3
mass density (328.15 K, 29490 kPa): 867.8 ± 0.3 kg/m3
mass density (328.15 K, 30500 kPa): 868.6 ± 0.3 kg/m3
mass density (328.15 K, 32530 kPa): 870.1 ± 0.3 kg/m3
mass density (328.15 K, 34550 kPa): 871.7 ± 0.3 kg/m3
mass density (328.15 K, 36580 kPa): 873.1 ± 0.3 kg/m3
mass density (328.15 K, 38600 kPa): 874.7 ± 0.3 kg/m3
mass density (328.15 K, 39620 kPa): 875.4 ± 0.3 kg/m3
